Measured values: the NIST ThermoML archive (doi:10.1007/s10765-007-0241-8)
± gives the expanded uncertainty stated by the source.

Conditions: Liquid; for thermal conductivity: Hot wire method; for mass density: Constant-volume piezometry

CCCCn1cc[n+](C)c1.F[P-](F)(F)(F)(F)F [1-butyl-3-methylimidazolium hexafluorophosphate]
Conditions	mass density, 100 kPa [kg/m3]	mass density, 10000 kPa [kg/m3]	mass density, 20000 kPa [kg/m3]	thermal conductivity, 0.1 kPa [W/m/K]	thermal conductivity, 10 kPa [W/m/K]	thermal conductivity, 20 kPa [W/m/K]
294.9 K	1369 ± 13	1373 ± 13	1378 ± 14	0.145 ± 0.006	0.146 ± 0.006	0.148 ± 0.006
315 K	1352 ± 13	1357 ± 13	1362 ± 13	0.145 ± 0.006	0.146 ± 0.006	0.147 ± 0.006
335.1 K	1336 ± 13	1341 ± 13	1347 ± 13	0.144 ± 0.006	0.145 ± 0.006	0.147 ± 0.006

CCCCCCn1cc[n+](C)c1.F[P-](F)(F)(F)(F)F [1-hexyl-3-methylimidazolium hexafluorophosphate]
Conditions	mass density, 294.1 K [kg/m3]	mass density, 315.1 K [kg/m3]	mass density, 335.2 K [kg/m3]	thermal conductivity, 294.1 K [W/m/K]	thermal conductivity, 315.1 K [W/m/K]	thermal conductivity, 335.2 K [W/m/K]
100 kPa	1294 ± 12	1278 ± 11	1262 ± 11	0.145 ± 0.006	0.145 ± 0.006	0.144 ± 0.006
10000 kPa	1300 ± 12	1284 ± 12	1268 ± 11	0.147 ± 0.006	0.146 ± 0.006	0.146 ± 0.006
20000 kPa	1306 ± 12	1290 ± 12	1274 ± 12	0.148 ± 0.006	0.148 ± 0.006	0.147 ± 0.006

CCCCCCCC[n+]1ccn(C)c1.F[P-](F)(F)(F)(F)F [1-octyl-3-methylimidazolium hexafluorophosphate]
Conditions	mass density, 295.1 K [kg/m3]	mass density, 315.1 K [kg/m3]	mass density, 335.2 K [kg/m3]	thermal conductivity, 295.1 K [W/m/K]	thermal conductivity, 315.1 K [W/m/K]	thermal conductivity, 335.2 K [W/m/K]
100 kPa	1236 ± 11	1222 ± 10	1207 ± 10	0.145 ± 0.006	0.145 ± 0.006	0.144 ± 0.006
10000 kPa	1243 ± 11	1228 ± 11	1213 ± 10	0.147 ± 0.006	0.146 ± 0.006	0.146 ± 0.006
20000 kPa	1249 ± 11	1234 ± 11	1219 ± 11	0.147 ± 0.006	0.147 ± 0.006	0.147 ± 0.006

CCCCCCCC [octane]
100 kPa
Conditions	thermal conductivity [W/m/K]
294.5 K	0.126 ± 0.005
314.7 K	0.121 ± 0.005
334.8 K	0.115 ± 0.005

Cc1ccccc1 [toluene]
thermal conductivity [W/m/K]
Conditions	294.2 K	314.1 K	334.4 K
100 kPa	0.132 ± 0.006	0.127 ± 0.005	0.122 ± 0.005
10000 kPa	0.136 ± 0.006	0.131 ± 0.006	0.126 ± 0.005
20000 kPa	0.139 ± 0.006	0.135 ± 0.006	0.129 ± 0.005
